For 1 compound, IC50 results are on record in ChEMBL document CHEMBL1127126, “Conformationally restricted analogs of CP-99,994: synthesis of a spirocyclic amine” (Bioorg Med Chem Lett, 1993).

This experiment deals with Substance-P receptor (Homo sapiens, UniProt P25103). The experiment can be described thus: Tested for inhibitory activity against substance P receptor.
Substance-P receptor, sequence (P25103 whole entry): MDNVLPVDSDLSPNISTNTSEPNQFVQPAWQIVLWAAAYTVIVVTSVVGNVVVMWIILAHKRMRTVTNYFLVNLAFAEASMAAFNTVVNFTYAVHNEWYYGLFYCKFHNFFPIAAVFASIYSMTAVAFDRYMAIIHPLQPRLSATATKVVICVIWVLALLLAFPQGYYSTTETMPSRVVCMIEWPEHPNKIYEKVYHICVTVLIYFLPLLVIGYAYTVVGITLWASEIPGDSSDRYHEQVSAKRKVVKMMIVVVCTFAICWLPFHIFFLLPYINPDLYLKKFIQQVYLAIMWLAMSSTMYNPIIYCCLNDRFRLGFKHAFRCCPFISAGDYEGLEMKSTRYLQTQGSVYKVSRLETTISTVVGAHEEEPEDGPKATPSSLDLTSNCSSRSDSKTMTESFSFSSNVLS

The compound `c1ccc([C@H]2NCCC[C@]23CC[C@H](c2ccccc2)N3)cc1` registered an IC50 above 1000 nM.
